Data taken from patent publication US6939850B2, “Altered human interleukin-1β convertase (ICE), NEDD-2, and C. elegans ced-3 polypeptides and uses therefor” (Massachusetts Institute of Technology, priority 1992, dated 2005).

How the values were obtained:
[1] = tested on: chick spinal motoneurons; test: Motoneuron culture deprived of muscle extract, survival; type: cell-based; details: without muscle extract, treated between 14 and 24 hours, counted after 3 days
Source text: A tissue culture model system that allows isolation of a relatively pure population of motoneurons whose survival is dependent on muscle extract, a potent source of target-derived trophic support, was used to test the ability of peptide inhibitors of ICE to block motoneuron cell death (Milligan et al., J Neurobiology 25:1005-1016 (1994) and Block-Gallego et al., Development. 111:221-232 (1991)). The death of motoneurons deprived of trophic support in vitro requires new gene expression and occurs by apoptosis (Milligan et al., J. Neurobiology 25:1005-1016 (1994)). Motoneurons deprived of trophic support at the time of plating become irreversibly committed to undergo cell death after 16-18 hours (Milligan et al., J. Neurobiology 25:1005-1016 (1994)). […] When motoneurons are treated with peptide inhibitors in the absence of muscle extract for three days and subsequently supplemented on day three with muscle extract, they continue to survive, and by six days appear as healthy and differentiated as the motoneurons that were continuously supplied with muscle extract (FIGS. 12A, 12B, 15G). Thus, motoneurons rescued for 3 days by ICE inhibitors remain capable of responding to trophic factors present in muscle extract.
Methods for motoneuron cultures. […]

[2] = tested on: undifferentiated neurons and precursor cells in the neural tube; test: Cell death in the early neural tube in vivo; set-up: species or system chick
[3] = tested on: cervical motoneurons; test: Cervical motoneuron cell death in vivo; set-up: species or system chick
Source text: The ability of the ICE inhibitors to block cell death in two classes of neurons whose naturally occurring death appears to be independent of target interaction was also studied. First, motoneurons in the cervical spinal cord undergo PCD between E4 and E5, with maximum levels occurring at E4.5.

[4] = molecular target: T1, ICE (Homo sapiens, UniProt P29466); details: protease activity of ICE; cited from earlier work
T1 sequence (P29466 120-297): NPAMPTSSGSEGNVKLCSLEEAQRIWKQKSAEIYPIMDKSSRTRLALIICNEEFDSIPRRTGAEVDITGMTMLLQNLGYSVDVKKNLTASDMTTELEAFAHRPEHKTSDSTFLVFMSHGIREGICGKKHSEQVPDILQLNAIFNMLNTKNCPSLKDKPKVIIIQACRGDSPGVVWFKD
T1 sequence (P29466 317-404): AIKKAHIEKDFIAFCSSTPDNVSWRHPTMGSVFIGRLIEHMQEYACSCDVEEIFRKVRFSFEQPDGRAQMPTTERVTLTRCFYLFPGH

For “Acetyl-Tyr-Val-Ala-Asp-aldehyde [Ac-YVAD-CHO]”, the motoneuron death [1] was “inhibitory effects on motoneuron death”, the “survival promoting effects on floorplate or dorsal spinal cord cells” value ([2]; compared to control animals) was “no survival promoting effects” and the “Pyknotic Cells in the Early Neural Tube, Dorsal Spinal Cord” value ([2]; mean ±SD) was 1.350 ± 0.297. For the same substance, the “Pyknotic Cells in the Early Neural Tube, Floor Plate” value ([2]; mean ±SD) was 1.115 ± 0.246, the “survival promoting effects on cervical motoneurons” value ([3]; compared to control or Ac-LLR-CHO treated animals) was “no survival promoting effects” and the “Pyknotic Cervical Motoneurons on E4.5” value ([3]; mean ±SD) was 25.9 ± 3.4. The Ki [4] was 0.76 nM.
